Reference: PubChem BioAssay AID180 (DTP/NCI, 2004)
“And” between values parts separate entries of the source, which are not always exact repeats. Identical values can stand only once.

System: BDF1 mice, Adenocarcinoma 755 s.c., tumor weight T/C
Assay: NCI In Vivo Anticancer Drug Screen. Data for tumor model Adenocarcinoma 755 (subcutaneous) in B6D2F1 (BDF1) mice
Settings: endpoint: mean tumor weight, higher = larger tumour
In short: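 Transplantable tumor implanted; mice dosed with compound or vehicle; survival or tumor size recorded; ratio of treated to vehicle control reported.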

[1] = dose: 10.0 mg/kg/injection, schedule: Q01DX011 (ip), vehicle: other

SMILES: Cn1cnc([N+](=O)[O-])c1Sc1nc(N)nc2nc[nH]c12
- T/C (dose: 0.04 mg/kg/injection, schedule: Q01DX011 (ip), vehicle: alkali diluted with saline): 76 % of control
- T/C (dose: 0.07 mg/kg/injection, schedule: Q01DX011 (ip), vehicle: methylcellulose (MC)): 84 % of control
- T/C (dose: 0.08 mg/kg/injection, schedule: Q01DX011 (ip), vehicle: alkali diluted with saline): 72 % of control
- T/C (dose: 0.13 mg/kg/injection, schedule: Q01DX011 (ip), vehicle: methylcellulose (MC)): 86 % of control
- T/C (dose: 0.16 mg/kg/injection, schedule: Q01DX011 (ip), vehicle: alkali diluted with saline): 102 % of control
- T/C (dose: 0.2 mg/kg/injection, schedule: Q01DX011 (ip), vehicle: methylcellulose (MC)): 30 % of control
- T/C (dose: 0.25 mg/kg/injection, schedule: Q01DX011 (ip), vehicle: distilled water + alcohol): 29 % of control
- T/C (dose: 0.25 mg/kg/injection, schedule: Q01DX011 (ip), vehicle: methylcellulose (MC)): 65 % of control
- T/C (dose: 0.32 mg/kg/injection, schedule: Q01DX011 (ip), vehicle: alkali diluted with saline): 82 % of control
- T/C (dose: 0.32 mg/kg/injection, schedule: Q01DX011 (ip), vehicle: saline): 102 % of control
- T/C (dose: 0.39 mg/kg/injection, schedule: Q01DX011 (ip), vehicle: methylcellulose (MC)): 8 % of control
- T/C (dose: 0.52 mg/kg/injection, schedule: Q01DX011 (ip), vehicle: distilled water + alcohol): 18 % of control
- T/C (dose: 0.62 mg/kg/injection, schedule: Q01DX011 (oral), vehicle: saline): 89 % of control
- T/C (dose: 0.63 mg/kg/injection, schedule: Q01DX011 (ip), vehicle: alkali diluted with saline): 41 % of control
- T/C (dose: 0.63 mg/kg/injection, schedule: Q01DX011 (ip), vehicle: saline): 46 % of control
- T/C (dose: 0.78 mg/kg/injection, schedule: Q01DX011 (ip), vehicle: methylcellulose (MC)): 7 % of control
- T/C (dose: 1.0 mg/kg/injection, schedule: Q01DX011 (ip), vehicle: methylcellulose (MC)): 27 % of control
- T/C (dose: 1.05 mg/kg/injection, schedule: Q01DX011 (ip), vehicle: distilled water + alcohol): 5 % of control
- T/C (dose: 1.25 mg/kg/injection, schedule: Q01DX011 (ip), vehicle: alkali diluted with saline): 2 % of control
- T/C (dose: 1.25 mg/kg/injection, schedule: Q01DX011 (ip), vehicle: saline): 4 % of control
- T/C (dose: 1.25 mg/kg/injection, schedule: Q01DX011 (oral), vehicle: saline): 36 % of control
- T/C (dose: 1.56 mg/kg/injection, schedule: Q01DX011 (ip), vehicle: methylcellulose (MC)): 5 % of control
- T/C (dose: 2.08 mg/kg/injection, schedule: Q01DX011 (ip), vehicle: distilled water + alcohol): 6 % of control
- T/C (dose: 2.5 mg/kg/injection, schedule: Q01DX011 (ip), vehicle: alkali diluted with saline): 1 % of control
- T/C (dose: 2.5 mg/kg/injection, schedule: Q01DX011 (ip), vehicle: methylcellulose (MC)): 4 % of control
- T/C (dose: 2.5 mg/kg/injection, schedule: Q01DX011 (ip), vehicle: saline): 3 % of control
- T/C (dose: 2.5 mg/kg/injection, schedule: Q01DX011 (oral), vehicle: saline): 8 % of control
- T/C (dose: 3.12 mg/kg/injection, schedule: Q01DX011 (ip), vehicle: methylcellulose (MC)): 2 % of control
- T/C (dose: 4.19 mg/kg/injection, schedule: Q01DX011 (ip), vehicle: distilled water + alcohol): 2 % of control
- T/C (dose: 5.0 mg/kg/injection, schedule: Q01DX011 (ip), vehicle: saline): 1 % of control
- T/C (dose: 5.0 mg/kg/injection, schedule: Q01DX011 (oral), vehicle: saline): 5 % of control
- T/C (dose: 6.25 mg/kg/injection, schedule: Q01DX011 (ip), vehicle: methylcellulose (MC)): 2 % of control
- T/C (dose: 10.0 mg/kg/injection, schedule: Q01DX011 (ip), vehicle: saline): 1 % of control
- T/C (dose: 12.5 mg/kg/injection, schedule: Q01DX011 (ip), vehicle: methylcellulose (MC)): 1 % of control

SMILES: Clc1ccccc1CSc1ncnc2nc[nH]c12
- T/C (dose: 5.0 mg/kg/injection, schedule: Q01DX011 (ip), vehicle: other): 11 % of control
- T/C [1]: 2 % of control
- T/C (dose: 31.0 mg/kg/injection, schedule: Q01DX011 (ip), vehicle: other): 12 % of control
- T/C (dose: 62.0 mg/kg/injection, schedule: Q01DX011 (ip), vehicle: other): 3 % of control
- T/C (dose: 125.0 mg/kg/injection, schedule: Q01DX011 (ip), vehicle: other): 3 % of control

SMILES: CC(C)n1cnc2c(=S)nc[nH]c21
- T/C (dose: 0.2 mg/kg/injection, schedule: Q01DX011 (ip), vehicle: carboxymethylcellulose (CMC)): 114 % of control
- T/C (dose: 0.39 mg/kg/injection, schedule: Q01DX011 (ip), vehicle: carboxymethylcellulose (CMC)): 67 % of control
- T/C (dose: 0.45 mg/kg/injection, schedule: Q01DX011 (ip), vehicle: carboxymethylcellulose (CMC)): 63 % of control
- T/C (dose: 0.78 mg/kg/injection, schedule: Q01DX011 (ip), vehicle: carboxymethylcellulose (CMC)): 111 % of control
- T/C (dose: 0.9 mg/kg/injection, schedule: Q01DX011 (ip), vehicle: carboxymethylcellulose (CMC)): 62 % of control
- T/C (dose: 0.9 mg/kg/injection, schedule: Q01DX011 (oral), vehicle: carboxymethylcellulose (CMC)): 52 % of control
- T/C (dose: 1.56 mg/kg/injection, schedule: Q01DX011 (ip), vehicle: carboxymethylcellulose (CMC)): 50 % of control
- T/C (dose: 1.8 mg/kg/injection, schedule: Q01DX011 (ip), vehicle: carboxymethylcellulose (CMC)): 15 % of control
- T/C (dose: 1.8 mg/kg/injection, schedule: Q01DX011 (oral), vehicle: carboxymethylcellulose (CMC)): 11 % of control
- T/C (dose: 3.12 mg/kg/injection, schedule: Q01DX011 (ip), vehicle: carboxymethylcellulose (CMC)): 9 % of control
- T/C (dose: 3.6 mg/kg/injection, schedule: Q01DX011 (ip), vehicle: carboxymethylcellulose (CMC)): 1 % of control
- T/C (dose: 3.6 mg/kg/injection, schedule: Q01DX011 (oral), vehicle: carboxymethylcellulose (CMC)): 5 % of control
- T/C (dose: 3.62 mg/kg/injection, schedule: Q01DX011 (ip), vehicle: carboxymethylcellulose (CMC)): 7 % of control and 14 % of control
- T/C (dose: 6.25 mg/kg/injection, schedule: Q01DX011 (ip), vehicle: carboxymethylcellulose (CMC)): 6 % of control
- T/C (dose: 7.25 mg/kg/injection, schedule: Q01DX011 (ip), vehicle: carboxymethylcellulose (CMC)): 3 % of control and 6 % of control
- T/C (dose: 7.25 mg/kg/injection, schedule: Q01DX011 (oral), vehicle: carboxymethylcellulose (CMC)): 11 % of control
- T/C (dose: 12.5 mg/kg/injection, schedule: Q01DX011 (ip), vehicle: carboxymethylcellulose (CMC)): 3 % of control
- T/C (dose: 14.5 mg/kg/injection, schedule: Q01DX011 (ip), vehicle: carboxymethylcellulose (CMC)): 1 % of control
- T/C (dose: 25.0 mg/kg/injection, schedule: Q01DX011 (ip), vehicle: carboxymethylcellulose (CMC)): 8 % of control
- T/C (dose: 29.0 mg/kg/injection, schedule: Q01DX011 (oral), vehicle: carboxymethylcellulose (CMC)): 2 % of control
- T/C (dose: 50.0 mg/kg/injection, schedule: Q01DX011 (ip), vehicle: carboxymethylcellulose (CMC)): 3 % of control and 6 % of control

SMILES: [I][Hg][CH2]C1COCC([CH2][Hg][I])O1.[I][Hg][CH2]C1COCC([CH2][Hg][I])O1 (stereo unspecified)
- T/C [1]: 59 % of control
- T/C (dose: 20.0 mg/kg/injection, schedule: Q01DX011 (ip), vehicle: other): 63 % of control
- T/C (dose: 40.0 mg/kg/injection, schedule: Q01DX011 (ip), vehicle: other): 31 % of control

SMILES: CCCCn1cnc2c(SCc3ccc(Cl)cc3Cl)nc(N)nc21
- T/C (dose: 50.0 mg/kg/injection, schedule: Q01DX011 (ip), vehicle: methylcellulose (MC)): 61 % of control
- T/C (dose: 100.0 mg/kg/injection, schedule: Q01DX011 (ip), vehicle: methylcellulose (MC)): 46 % of control
- T/C (dose: 200.0 mg/kg/injection, schedule: Q01DX011 (ip), vehicle: methylcellulose (MC)): 35 % of control
- T/C (dose: 400.0 mg/kg/injection, schedule: Q01DX011 (ip), vehicle: methylcellulose (MC)): 5 % of control

SMILES: CCCOP(=S)(N1CC1)N1CC1
- T/C (dose: 3.3 mg/kg/injection, schedule: Q01DX011 (ip), vehicle: methylcellulose (MC)): 74 % of control
- T/C (dose: 6.8 mg/kg/injection, schedule: Q01DX011 (ip), vehicle: methylcellulose (MC)): 77 % of control
- T/C (dose: 13.5 mg/kg/injection, schedule: Q01DX011 (ip), vehicle: methylcellulose (MC)): 40 % of control

SMILES: Cn1c(=O)c2[nH]c(NN)nc2n(C)c1=O
- T/C (dose: 25.0 mg/kg/injection, schedule: Q01DX011 (ip), vehicle: methylcellulose (MC)): 66 % of control

SMILES: C[C@@H]1C[C@H]2[C@@H]3CCC4=CC(=O)C=C[C@]4(C)[C@@]3(F)[C@@H](O)C[C@]2(C)[C@@]1(O)C(=O)CO
- T/C (dose: 7.0 mg/kg/injection, schedule: Q01DX011 (sc), vehicle: steriod suspending solution): 19 % of control and 32 % of control and 39 % of control
- T/C (dose: 14.0 mg/kg/injection, schedule: Q01DX011 (sc), vehicle: steriod suspending solution): 1 % of control and 25 % of control
- T/C (dose: 21.0 mg/kg/injection, schedule: Q01DX011 (sc), vehicle: steriod suspending solution): 4 % of control
- T/C (dose: 28.0 mg/kg/injection, schedule: Q01DX011 (sc), vehicle: steriod suspending solution): 10 % of control

SMILES: O=CCC(O)C(O)C(O)CO (stereo unspecified)
- T/C (dose: 125.0 mg/kg/injection, schedule: Q01DX011 (ip), vehicle: carboxymethylcellulose (CMC)): 106 % of control and 122 % of control
